Data on four compounds can be found in US7767651B2, “Spiroketal derivatives and use thereof as diabetic medicine” (Chugai Seiyaku Kabushiki Kaisha, priority 2005, dated 2010).

One data set deals with T1, human SGLT2 (Homo sapiens, UniProt P31639).
T1 construct: expressed in transfected cells; host or cells: CHO-K1
T1 sequence (P31639 1-672): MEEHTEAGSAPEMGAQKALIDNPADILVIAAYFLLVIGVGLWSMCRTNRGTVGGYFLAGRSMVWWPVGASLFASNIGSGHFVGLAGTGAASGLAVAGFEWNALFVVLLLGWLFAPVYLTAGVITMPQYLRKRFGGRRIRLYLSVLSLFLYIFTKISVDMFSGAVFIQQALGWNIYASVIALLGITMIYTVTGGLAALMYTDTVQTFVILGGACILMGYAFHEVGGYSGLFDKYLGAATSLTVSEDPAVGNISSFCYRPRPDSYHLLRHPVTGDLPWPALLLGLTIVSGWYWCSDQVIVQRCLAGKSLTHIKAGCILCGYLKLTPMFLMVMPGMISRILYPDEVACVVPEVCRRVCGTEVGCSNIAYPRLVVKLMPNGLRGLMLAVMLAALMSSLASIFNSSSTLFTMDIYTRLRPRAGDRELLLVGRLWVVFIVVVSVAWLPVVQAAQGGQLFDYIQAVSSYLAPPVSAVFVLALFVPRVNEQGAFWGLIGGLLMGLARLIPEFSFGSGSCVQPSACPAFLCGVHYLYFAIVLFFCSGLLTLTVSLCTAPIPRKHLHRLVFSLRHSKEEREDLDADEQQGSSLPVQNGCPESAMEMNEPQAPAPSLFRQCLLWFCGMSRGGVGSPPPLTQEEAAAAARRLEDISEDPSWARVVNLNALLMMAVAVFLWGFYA
As to the kind of experiment: Inhibitory activity against methyl-α-D-glucopyranoside uptake of human SGLT2. The class given is cell-based. To be noted: SGLT2 inhibition; methyl-α-D-(U-14C)glucopyranoside uptake in CHO-K1 cells stably expressing human SGLT2, 45 minutes at 37° C. The text has this:
Evaluation of Inhibitory Activity Against methyl-α-D-glucopyranoside uptake of human Na^+-glucose cotransporter (SGLT1 and SGLT2)
Human SGLT2 cDNA was amplified by PCR with a cDNA library derived from human kidney (Clontech) as a template, synthetic DNA primers and KOD+ DNA Polymerase. The amplified cDNA was inserted into pcRII-Topo vector by using a Topo TA Cloning Dual Promoter kit. E. coli competent cells (TPO10) were transformed with the plasmid vector, cultured in LB medium containing ampicillin (50 mg/L) to grow ampicillin-resistant clones. The plasmid vector containing human SGLT2 cDNA was purified from the clone in a standard manner. Human SGLT2 cDNA added restriction enzyme recognition sites (Xho I at 5′-end, Hind III at 3′-end) was amplified by PCR with the plasmid vector as a template, synthetic DNA primers containing an additional restriction enzyme recognition site and KOD+ DNA Polymerase. This amplified cDNA was digested with Xho I and Hind III, and ligated into expression vector pcDNA3.1(−) digested with Xho I and Hind III by using a Rapid DNA Ligation kit. E. coli competent cells (DH5α) were transformed with the ligated expression vector and grown in ampicillin-containing LB medium. Human SGLT2 expression vector was purified from the ampicillin-resistant clone in a standard manner.
The human SGLT1 expression vector or the human SGLT2 expression vector was digested with the restriction enzyme Pvu I and transfected into CHO-Kl cells with FuGENE (Roche Diagonostics). After the transfection, the cells were cultured at 37° C. in the presence of 5% CO2 for about 3 weeks in DMEM medium (Gibco) containing penicillin (50 U/mL, SIGMA), streptomycin (50 mg/L, SIGMA), geneticin (200 mg/L, Nacalai Tesque, Inc., Japan) and 20% fetal bovine serum to obtain geneticin-resistant clones. Among these clones, clones stably expressing human SGLT1 or human SGLT2 were selected by the evaluating the sodium-dependent uptake activity of sugar (methyl-α-D-glucopyranoside). […]

The conditions of data set [1]: intravenously administered to rats; Nonpatent Document 2; cited from earlier work.
Data set [2] has as its system sugar transporters of the facilitated diffusion type. To be noted: aglycon of phloridzin; reported; cited from earlier work.

pIC50: −log10 of the molar value.

As usually defined, the pIC50 is the negative decadic logarithm of the IC50, by convention in mol/L. A lower pIC50 goes with a large IC50. At human SGLT2, `CCc1ccc(Cc2ccc3c(c2)[C@]2(OC3)O[C@H](CO)[C@@H](O)[C@H](O)[C@H]2O)cc1` [Example 1, 1,1-Anhydro-1-C-[5-(4-ethylphenyl)methyl-2-(hydroxymethyl)phenyl]-β-D-glucopyranose] showed a negative-log IC50 (pIC50) of 8.38.

On human SGLT2, `OC[C@H]1O[C@]2(OCc3ccc(Cc4cc5ccccc5s4)cc32)[C@H](O)[C@@H](O)[C@@H]1O` [Example 2, 1,1-Anhydro-1-C-[5-(2-benzothiophenyl)methyl-2-(hydroxymethyl)phenyl]-β-D-glucopyranose] gave a pIC50 of 8.40. Still for that read-out and setting: in the case of `CC(C)c1ccc(Cc2ccc3c(c2)[C@]2(OC3)O[C@H](CO)[C@@H](O)[C@H](O)[C@H]2O)cc1` [Example 4, 1,1-Anhydro-1-C-[5-(4-isopropylphenyl)methyl-2-(hydroxymethyl)phenyl]-β-D-glucopyranose] it was 8.30.

Take `O=C(CCc1ccc(O)cc1)c1c(O)cc(O)cc1O` [phloretin]: the “adverse effect on intracerebral glucose levels” value in data set [1] is given as “reducing intracerebral glucose levels”. Further, the “inhibition of sugar transporters of the facilitated diffusion type” value in data set [2] is “strongly inhibit”.
